Test results: US20040106578A1, “Fungicidal compositions based on pyridylmethylbenzamide derivatives and at least one complex III inhibiting compound” (priority 2001, published 2004)

System: Plasmopara viticola
Assay: Test of a composition against vine downy mildew, preventive action, on grapevine plants
Assay type: in vivo
Details: grapevine var. Chardonnay sprayed 3 days before inoculation, evaluated 7 days after contamination, Abbott formula, untreated control 90% sporulated surface
Procedure: Test of a Composition Against Vine Downy Mildew (Plasmopara Viticola; Preventive Action)
Grapevine plants are grown (var. Chardonnay) on sandy soil in plastic pots, with one plant per pot. The plants which are two months old (6 to 7 developed leaves) are sprayed with compound (I) and compound (II), either alone, or as a mixture.
The fungicidal active ingredients, either alone, or as a mixture, are applied at a dose equivalent to 500 litres/ha.
The compound (I)/compound (II) ratio studied is 1/2.
Three days after the treatment, each plant is inoculated by spraying an aqueous suspension of Plasmopara viticola sporangia obtained from contaminated leaves. The sporangium concentration is about 100 000 units per ml.
After contamination, the plants are incubated for two days at 18° C. under a saturated atmosphere, and then for 5 days at about 20° C. with a relative humidity of 90-100%.
Seven days after the contamination, the symptoms are evaluated in terms of underside surface of the leaves which are infected, compared with the untreated but contaminated plants.
The efficacy of the treatment is calculated using the following Abbott formula: [formula]
The concentrations of the fungicides, alone or as a mixture, giving 50%, 70% or 90% efficacy for each component, in the appropriate test, are determined based on the dose/response sigmoid curve model and their corresponding confidence intervals. […]

| SMILES | Efficacy (%) (10 mg/l) | Efficacy (%) (5 mg/l) |
| --- | --- | --- |
| CSC1=N[C@@](C)(c2ccccc2)C(=O)N1Nc1ccccc1 [Fenamidone, (S)-1-anilino-4-methyl-2-methylthio-4-phenylimidazolin-5-one] | 72 | – |
| O=C(NCc1ncc(C(F)(F)F)cc1Cl)c1c(Cl)cccc1Cl [Compound (Ia), 2,6-dichloro-N-{[3-chloro-5-(trifluoromethyl)-2-pyridinyl]methyl}benzamide] | – | 40 |
